We go through two molecules from US12679827B2, “Pyrimidine compounds and their pharmaceutical uses” (National Health Research Institutes, priority 2020, dated 2026).

Holding throughout (assay type): cell-based
The test system of assay [1] is NCI-H446. The assay is described as follows: Small-cell-lung cancer cell proliferation inhibition assay (PrestoBlue), NCI-H446. The following applies: Homo sapiens, cMYC amplified SCLC cells, 72 hours. The procedure:
(§1) Small cell lung cancer cells NCI-H82 (ATCC HTB-175, cMYC amplified), NCI-H446 (ATCC® HTB-171, cMYC amplified), and NCI-H69 (ATCC® HTB-119, MYCN amplified) were seeded at the density of 5000-10000 cells per well in 96-well plates. After 24 hours, the cancer cells were treated with each compound at various concentrations (0-10 μM) and then incubated for another 72 hours. IC50 values were computed based on duplicated 8-point titration.

The test system of assay [2] is SNU-478. The assay is described as follows: Proliferation inhibition of various cancer cells (PrestoBlue), SNU-478. To be noted: Cholangiocarcinoma; 72 hours. As to the method:
(§2) The efficacies of compounds 41 and 86 of Formula (I) in inhibiting proliferation of eleven types of cancer cells were determined using PrestoBlue™ Cell Viability Reagent (ThermoFisher Scientific, USA). The eleven types of cancer cells are small cell lung cancer, non-small cell lung cancer, liver cancer, pancreatic cancer, breast cancer, colon cancer, prostate cancer, neuroblastoma, brain cancer, leukemia, and cholangiocarcinoma.
(§3) More specifically, […], i.e., NCI-H82 (ATCC® HTB-175), NCI-H446 (ATCC® HTB-171), NCI-H69 (ATCC® HTB-119), NCI-H146 (ATCC® HTB-173), NCI-H1792 (ATCC® CRL-5895), NCI-H1299 (ATCC® CRL-5803), SNU-398 (ATCC® CRL-2233), PSN-1 (ATCC® CRL-3211), MIA PaCa-2 (ATCC® CRL-1420), MDA-MB-231 (ATCC® HTB-26), LOVO (ATCC® CCL-229), COLO 205 (ATCC® CCL-222), PC-3 (ATCC® CRL-1435), SK-N-BE(2) (ATCC® CRL-2271), D341 Med (ATCC® HTB-187), K562 (ATCC® CCL-243), MOLM-13 (DSMZ-German Collection of Microorganisms and Cell Cultures GmbH, ACC No. 554), and SNU-478 (KCLB 00478), were seeded at a density of 4000-10000 cells per well in 96-well plates for 24 hours. The cancer cells were then treated with each compound at various concentrations (0-10 μM), followed by incubation for another 72 hours. IC50 values were computed based on duplicated 8-point titration.

The subject of assay [3] is K562. Nature of the assay: Proliferation inhibition of various cancer cells (PrestoBlue), K562. To be noted: Homo sapiens, Leukemia, 72 hours. The procedure: as §2, §3
Assay [4] deals with NCI-H69. Nature of the assay: Small-cell-lung cancer cell proliferation inhibition assay (PrestoBlue), NCI-H69. To be noted: Homo sapiens, MYCN amplified SCLC cells, 72 hours. As to the method: as §1

One may read the IC50 as the concentration needed to halve the response being measured. In the case of `CCN1CCN(c2cc(Nc3cc(C)[nH]n3)nc(N[C@H]3CCN(C(=O)c4ccc(Cl)cc4F)C3)n2)CC1` [Compound 41], the IC50 in assay [1] was less than 1000 nM; in assay [2] it was less than 2000 nM; in assay [3], less than 1000 nM.

Take `CCN1CCN(c2cc(Nc3cc(C)[nH]n3)nc(NC3CCN(C(=O)c4cccc(Cl)c4F)CC3)n2)CC1` [Compound 86]: the IC50 in assay [4] was less than 1000 nM; in assay [1] it was less than 1000 nM; in assay [2] it was less than 2000 nM; in assay [3], less than 1000 nM.
